“And” between values parts separate entries of the source, which are not always exact repeats. Identical values can stand only once.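 48-hour exposure; five concentrations; linearly interpolated endpoints. GI50 = concentration required for 50% inhibition of growth. TGI: total growth inhibition.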
Assays:
Assay in all cases: DTP human tumour cell line panel, 48 h
[1] = test system: HCC-2998 colon
[2] = test system: M14 melanoma
[3] = test system: RPMI-8226 leukemia
[4] = test system: SR leukemia
[5] = test system: NCI-H226 lung
[6] = test system: CCRF-CEM leukemia
[7] = test system: SF-539 CNS
[8] = test system: SF-268 CNS
[9] = test system: 786-0 renal
[10] = test system: UACC-257 melanoma

Structure (SMILES) | TGI [1] | TGI [2] | TGI [3] | TGI [4] | TGI [5] | TGI [6] | TGI [7] | TGI [8] | TGI [9] | TGI [10] | GI50 [3]
CCN(CC)c1ccc2cc(-c3nc4ccccc4c(=O)[nH]3)c(=N)oc2c1 | > 100 µM | > 100 µM | > 100 µM | > 100 µM | > 100 µM | > 100 µM | > 100 µM | > 100 µM | > 100 µM | > 100 µM | –
CC(C)C1(O)C(=O)N(c2c(F)c(F)c(F)c(F)c2F)C(=S)N1CCSc1ccccc1 (stereo unspecified) | 34.8 µM | 31.9 µM | 28.7 µM | 43 µM | 38.7 µM | 31.7 µM | 35.1 µM | 33.2 µM | 33.3 µM | 32.4 µM | –
Cc1ccc(/C(O)=C/c2nc3ccc([N+](=O)[O-])cc3nc2/C=C(\O)c2ccc(C)cc2)cc1 | > 100 µM | > 100 µM | > 100 µM | > 100 µM | > 100 µM | > 100 µM | > 100 µM | > 100 µM | > 100 µM | > 100 µM | –
CCOC(=O)C1CCCCN1CCc1c[nH]c2ccccc12 (stereo unspecified) | > 100 µM | > 100 µM | > 100 µM | > 100 µM | > 100 µM | > 100 µM | > 100 µM | > 100 µM | > 100 µM | > 100 µM | –
C/C(=N\Nc1nc2ccccc2[nH]1)c1cc2ccccc2cn1 | 3.46 µM | 0.357 µM | 0.599 µM | > 100 µM | 1.69 µM | 5.65 µM | 0.764 µM | 1.02 µM | 0.743 µM | 5.67 µM | –
O=C1CC(n2cccc2)c2c(Br)sc(Br)c21 (stereo unspecified) | 28.7 µM | 30.2 µM | 27.4 µM | 12 µM | 42.2 µM | 26.8 µM | 35 µM | 31.2 µM | 43.8 µM | 30.9 µM | –
O=[N+]([O-])c1cccnc1-n1cnc2ccccc21 | > 100 µM | > 100 µM | > 100 µM | > 100 µM | > 100 µM | > 100 µM | > 100 µM | > 100 µM | > 100 µM | > 100 µM | –
C=C1C(=O)O[C@H]2[C@H]3O[C@@H](C[C@@H]12)[C@](C)(O)CC[C@@H]1O[C@@]1(C)CCC[C@H]3C | 55.5 µM | 29.3 µM | > 100 µM | > 100 µM | 60 µM | 58.2 µM | 53.7 µM | 34.2 µM | 33.9 µM | 89.6 µM | –
CC1(C2CCC3(C)OC3C2)CO1 (stereo unspecified) | > 100 µM | > 100 µM | > 100 µM | > 100 µM | > 100 µM | > 100 µM | > 100 µM | > 100 µM | > 100 µM | > 100 µM | –
CC(=O)/C(=C\c1ccc(Cl)c(Cl)c1)C(=O)C(C)CN(C)C (stereo unspecified) | 9.66 µM | 24.2 µM | 3.63 µM | 5.21 µM | 14.9 µM | 0.116 µM | 13.4 µM | 23.4 µM | 8.96 µM | 23.7 µM | –
CC(=O)Nc1cc(Nc2cc(=O)[nH]c(=O)[nH]2)ccc1C | > 100 µM | > 100 µM | > 100 µM | > 100 µM | > 100 µM | > 100 µM | > 100 µM | > 100 µM | > 100 µM | > 100 µM | –
CCOC(=O)c1cnccc1CC1(C#N)c2ccccc2C=CN1C(=O)c1ccccc1 (stereo unspecified) | > 100 µM | 79.1 µM | 27.6 µM | 92.7 µM | > 100 µM | > 100 µM | 75.6 µM | 82 µM | > 100 µM | > 100 µM | –
COc1ccc(-c2cc(C(O)C3CCCCN3)c3ccccc3n2)cc1 (stereo unspecified) | 3.7 µM | 4.61 µM | 5.82 µM | 1.46 µM | 20.9 µM | 9.08 µM | 23.5 µM | 27.7 µM | 20.6 µM | 4.48 µM | –
NCCOCC(N)C(=O)O (stereo unspecified) | > 100 µM | > 100 µM | > 100 µM | > 100 µM | > 100 µM | > 100 µM | > 100 µM | > 100 µM | > 100 µM | > 100 µM | 39.1 µM and > 100 µM
O=c1cc(NCc2ccncc2)[nH]c(=O)[nH]1 | > 100 µM | > 100 µM | > 100 µM | > 100 µM | > 100 µM | > 100 µM | > 100 µM | > 100 µM | > 100 µM | > 100 µM | –

From PubChem BioAssay (NCI)
